Laboratory results: patent US20250163054A1, “SUBSTITUTED BICYCLIC HETEROARYL COMPOUNDS USEFUL AS INHIBITORS OF TLR9” (Bristol-Myers Squibb Company, priority 2022, published 2025)

Assays:
Assay type in all cases: cell-based
human TLR8 = biological target: T1, human TLR8 (Homo sapiens, UniProt Q9NR97); test: TLR7/8/9 Inhibition Reporter Assays (TLR8); conditions: HEK-Blue cells overexpressing human TLR8, SEAP reporter, stimulated with TLR8 ligand R848
T1 construct: host or cells: HEK-Blue cells (HEK293-derived reporter line)
T1 sequence (Q9NR97 27-1041): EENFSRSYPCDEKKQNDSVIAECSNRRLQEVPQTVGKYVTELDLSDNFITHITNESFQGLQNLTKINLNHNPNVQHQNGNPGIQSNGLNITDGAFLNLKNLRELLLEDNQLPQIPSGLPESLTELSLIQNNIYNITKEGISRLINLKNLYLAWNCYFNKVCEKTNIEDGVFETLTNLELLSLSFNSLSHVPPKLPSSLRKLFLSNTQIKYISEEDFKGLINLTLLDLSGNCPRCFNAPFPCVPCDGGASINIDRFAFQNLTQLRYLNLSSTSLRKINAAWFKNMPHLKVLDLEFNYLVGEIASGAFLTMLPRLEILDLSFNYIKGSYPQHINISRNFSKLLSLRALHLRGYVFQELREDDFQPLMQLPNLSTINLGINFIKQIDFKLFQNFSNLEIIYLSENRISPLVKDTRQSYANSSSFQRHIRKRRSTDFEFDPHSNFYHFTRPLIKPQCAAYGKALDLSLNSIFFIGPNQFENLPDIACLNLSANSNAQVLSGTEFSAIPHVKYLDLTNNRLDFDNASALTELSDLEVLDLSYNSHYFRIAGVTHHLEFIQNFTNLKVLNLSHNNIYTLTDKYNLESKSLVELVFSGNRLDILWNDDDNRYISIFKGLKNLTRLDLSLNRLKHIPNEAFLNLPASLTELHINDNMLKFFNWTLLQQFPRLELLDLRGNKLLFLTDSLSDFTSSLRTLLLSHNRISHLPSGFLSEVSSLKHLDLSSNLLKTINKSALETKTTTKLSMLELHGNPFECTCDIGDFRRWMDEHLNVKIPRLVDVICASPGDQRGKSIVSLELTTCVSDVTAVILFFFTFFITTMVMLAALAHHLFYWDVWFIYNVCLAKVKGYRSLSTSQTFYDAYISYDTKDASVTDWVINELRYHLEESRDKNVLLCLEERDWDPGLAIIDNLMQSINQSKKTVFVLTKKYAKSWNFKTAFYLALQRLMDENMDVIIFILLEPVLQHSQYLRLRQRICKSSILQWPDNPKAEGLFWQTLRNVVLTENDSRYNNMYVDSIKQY
Experimental: (§1) HEK-Blue™-cells (Invivogen) overexpressing human TLR7, TLR8 or TLR9 receptors were used for screening inhibitors of these receptors using an inducible SEAP (secreted embryonic alkaline phosphatase) reporter gene under the control of the IFN-β minimal promoter fused to five NF-κB and AP-1-binding sites. Cells are seeded into Greiner 384 well plates (15000 cells per well) that are predispensed (by ECHO) with testing compounds in DMSO to yield a final dose response concentration range of 0.85 nM-[…]. After a 60 minute compound pre-treatment in 37° C. incubator, the cells are then stimulated with a TLR7 ligand (gardiquimod at a final concentration of […]), TLR8 ligand (R848 at a final concentration of […]) or TLR9 ligand (ODN2006 at a final concentration of 200 nM) to activate NF-κB and AP-1 which induce the production of SEAP. After a 22 hour incubation at 37° C., 5% CO2, SEAP levels are determined with the addition of HEK-Blue™ Detection reagent (Invivogen), a cell culture medium that allows for detection of SEAP, according to manufacturer's specifications. The percent inhibition is determined as the % reduction in the HEK-Blue signal present in wells treated with agonist plus DMSO alone compared to wells treated with a known inhibitor.

human TLR7 = biological target: T2, human TLR7 (Homo sapiens, UniProt Q9NYK1); test: TLR7/8/9 Inhibition Reporter Assays (TLR7); conditions: HEK-Blue cells overexpressing human TLR7, SEAP reporter, stimulated with TLR7 ligand gardiquimod
T2 construct: host or cells: HEK-Blue cells (HEK293-derived reporter line)
T2 sequence (Q9NYK1 27-1049): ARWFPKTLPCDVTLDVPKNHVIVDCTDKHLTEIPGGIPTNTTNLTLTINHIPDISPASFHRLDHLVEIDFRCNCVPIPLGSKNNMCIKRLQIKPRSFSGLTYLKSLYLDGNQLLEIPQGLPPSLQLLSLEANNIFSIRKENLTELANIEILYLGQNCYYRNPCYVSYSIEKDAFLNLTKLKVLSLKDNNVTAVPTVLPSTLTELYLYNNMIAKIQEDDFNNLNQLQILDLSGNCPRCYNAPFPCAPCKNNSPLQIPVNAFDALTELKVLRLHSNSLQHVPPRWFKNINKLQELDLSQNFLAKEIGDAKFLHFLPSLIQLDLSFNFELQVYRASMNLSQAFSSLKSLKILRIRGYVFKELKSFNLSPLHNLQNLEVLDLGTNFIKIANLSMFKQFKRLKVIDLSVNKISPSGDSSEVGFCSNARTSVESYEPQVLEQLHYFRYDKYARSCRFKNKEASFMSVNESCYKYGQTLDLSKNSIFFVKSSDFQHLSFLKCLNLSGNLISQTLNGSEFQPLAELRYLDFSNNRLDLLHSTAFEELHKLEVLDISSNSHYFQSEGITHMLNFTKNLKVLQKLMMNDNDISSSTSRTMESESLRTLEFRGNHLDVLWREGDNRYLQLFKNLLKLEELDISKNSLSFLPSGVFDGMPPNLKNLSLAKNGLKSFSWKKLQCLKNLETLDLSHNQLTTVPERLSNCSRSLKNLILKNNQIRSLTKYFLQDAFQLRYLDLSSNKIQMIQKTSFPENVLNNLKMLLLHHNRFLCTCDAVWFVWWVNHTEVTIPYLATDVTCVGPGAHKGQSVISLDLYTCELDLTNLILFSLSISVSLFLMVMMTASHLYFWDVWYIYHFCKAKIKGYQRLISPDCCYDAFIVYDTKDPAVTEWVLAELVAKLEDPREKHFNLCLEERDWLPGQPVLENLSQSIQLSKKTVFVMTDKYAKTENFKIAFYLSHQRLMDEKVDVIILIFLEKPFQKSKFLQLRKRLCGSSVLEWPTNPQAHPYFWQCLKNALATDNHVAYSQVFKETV
Experimental: as §1

human TLR9 = biological target: T3, human TLR9 (Homo sapiens, UniProt Q9NR96); test: TLR7/8/9 Inhibition Reporter Assays (TLR9); conditions: HEK-Blue cells overexpressing human TLR9, SEAP reporter, stimulated with TLR9 ligand ODN2006
T3 construct: host or cells: HEK-Blue cells (HEK293-derived reporter line)
T3 sequence (Q9NR96 26-1032): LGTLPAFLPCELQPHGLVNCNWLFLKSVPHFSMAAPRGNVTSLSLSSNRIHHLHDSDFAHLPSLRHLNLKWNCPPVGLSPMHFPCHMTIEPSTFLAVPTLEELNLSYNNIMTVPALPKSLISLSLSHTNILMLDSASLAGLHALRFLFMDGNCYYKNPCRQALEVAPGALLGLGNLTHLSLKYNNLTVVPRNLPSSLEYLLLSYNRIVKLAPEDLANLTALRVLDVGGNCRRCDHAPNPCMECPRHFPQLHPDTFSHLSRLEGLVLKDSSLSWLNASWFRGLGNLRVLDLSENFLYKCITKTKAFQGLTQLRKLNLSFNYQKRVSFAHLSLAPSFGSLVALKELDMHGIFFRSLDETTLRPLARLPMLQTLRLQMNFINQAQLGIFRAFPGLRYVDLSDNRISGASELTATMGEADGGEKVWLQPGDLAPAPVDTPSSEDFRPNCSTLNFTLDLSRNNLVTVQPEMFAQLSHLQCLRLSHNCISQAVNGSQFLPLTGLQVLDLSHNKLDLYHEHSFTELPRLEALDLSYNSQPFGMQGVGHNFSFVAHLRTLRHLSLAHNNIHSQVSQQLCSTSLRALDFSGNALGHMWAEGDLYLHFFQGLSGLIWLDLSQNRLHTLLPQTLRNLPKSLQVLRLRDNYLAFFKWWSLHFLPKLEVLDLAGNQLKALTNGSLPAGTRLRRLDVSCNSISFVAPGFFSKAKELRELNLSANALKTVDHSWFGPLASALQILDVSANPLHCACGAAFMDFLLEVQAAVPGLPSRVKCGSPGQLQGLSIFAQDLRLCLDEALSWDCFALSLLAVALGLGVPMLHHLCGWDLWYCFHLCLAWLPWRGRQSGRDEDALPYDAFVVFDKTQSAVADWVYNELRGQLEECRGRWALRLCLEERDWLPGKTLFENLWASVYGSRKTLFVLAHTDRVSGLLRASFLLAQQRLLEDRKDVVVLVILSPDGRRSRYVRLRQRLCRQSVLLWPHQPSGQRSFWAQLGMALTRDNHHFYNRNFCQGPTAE
Experimental: as §1

Structure (SMILES) | IC50 (human TLR8) | IC50 (human TLR7) | IC50 (human TLR9)
Cc1nc(-c2ccc(N3CC4(C3)CN(C3COC3)C4)cc2)cc2c1nc(-c1ccc(S(C)(=O)=O)cc1)n2C [Example 107, 1,4-dimethyl-2-(4-(methylsulfonyl)phenyl)-6-(4-(6-(oxetan-3-yl)-2,6-diazaspiro[3.3]heptan-2-yl)phenyl)-1H-imidazo[4,5-c]pyridine] | > 50 µM | 30 µM | 0.98 µM
Cc1nc(-c2ccc(N3CCN(CCCN4CCOCC4)CC3)cc2)cc2c1nc(-c1ccc(S(C)(=O)=O)cc1)n2C [Example 52, 4-(3-(4-(4-(1,4-dimethyl-2-(4-(methylsulfonyl)phenyl)-1H-imidazo[4,5-c]pyridin-6-yl)phenyl)piperazin-1-yl)propyl)morpholine] | 2.6 µM | 1.7 µM | 0.028 µM
CC(C)N1CC2(CN(c3ccc(-c4cc5c(cn4)nc(-c4ccc(S(C)(=O)=O)cc4)n5C4CC4)cc3)C2)C1 [Example 89, 1-cyclopropyl-6-(4-(6-isopropyl-2,6-diazaspiro[3.3]heptan-2-yl)phenyl)-2-(4-(methylsulfonyl)phenyl)-1H-imidazo[4,5-c]pyridine] | 4.5 µM | 1.9 µM | 0.42 µM
COc1ccc(-c2nc3c(C)nc(-c4ccc(N5C[C@@H]6CN(C(C)C)C[C@@H]6C5)cc4)cc3n2C)cc1OC [Example 59, 2-(3,4-dimethoxyphenyl)-6-(4-((3aR,6aS)-5-isopropylhexahydropyrrolo[3,4-c]pyrrol-2(1H)-yl)phenyl)-1,4-dimethyl-1H-imidazo[4,5-c]pyridine] | 21 µM | 1.7 µM | 0.024 µM
COc1ccc(-c2nc3cnc(-c4ccc(N5C[C@@H]6CN(C(C)C)C[C@@H]6C5)cc4)cc3n2C2CC2)cc1OC [Example 81, 1-cyclopropyl-2-(3,4-dimethoxyphenyl)-6-(4-((3aR,6aS)-5-isopropylhexahydropyrrolo[3,4-c]pyrrol-2(1H)-yl)phenyl)-1H-imidazo[4,5-c]pyridine] | 3.3 µM | 3 µM | 0.12 µM
CC(C)CN1CC2(CCN(c3ccc(-c4cc5c(cn4)nc(-c4ccc(S(C)(=O)=O)cc4)n5C)cc3)C2)C1 [Example 99, 6-(4-(2-isobutyl-2,6-diazaspiro[3.4]octan-6-yl)phenyl)-1-methyl-2-(4-(methylsulfonyl)phenyl)-1H-imidazo[4,5-c]pyridine] | 0.9 µM | 3.1 µM | 0.22 µM
Cc1cc(-c2nc3c(C)nc(-c4ccc(N5CCN(C(C)C)CC5)cc4)cc3n2C)cc(C)n1 [Example 13, 2-(2,6-dimethylpyridin-4-yl)-6-(4-(4-isopropylpiperazin-1-yl)phenyl)-1,4-dimethyl-1H-imidazo[4,5-c]pyridine] | > 50 µM | 1.9 µM | 0.41 µM

Results, then the compound that gave them:

IC50 (human TLR8) | IC50 (human TLR7) | IC50 (human TLR9) | Structure (SMILES)
> 50 µM | 5.8 µM | 0.11 µM | Cc1nc(-c2ccc(N3CCC(N4CCCC4)CC3)cc2)cc2c1nc(-c1ccc(S(C)(=O)=O)cc1)n2C [Example 41, 1,4-dimethyl-2-(4-(methylsulfonyl)phenyl)-6-(4-(4-(pyrrolidin-1-yl)piperidin-1-yl)phenyl)-1H-imidazo[4,5-c]pyridine]
6.8 µM | 6.2 µM | 0.078 µM | Cc1nc(-c2ccc(N3CC4(CN(CC(C)(C)O)C4)C3)cc2)cc2c1nc(-c1ccc(S(C)(=O)=O)cc1)n2C [Example 97, 1-(6-(4-(1,4-dimethyl-2-(4-(methylsulfonyl)phenyl)-1H-imidazo[4,5-c]pyridin-6-yl)phenyl)-2,6-diazaspiro[3.3]heptan-2-yl)-2-methylpropan-2-ol]
> 50 µM | 3.5 µM | 0.13 µM | Cn1c(-c2ccc(S(C)(=O)=O)cc2)nc2c(C(F)(F)F)nc(C3CCN(C4CCN(CC(C)(C)O)CC4)CC3)cc21 [Example 34, 2-methyl-1-(4-(1-methyl-2-(4-(methylsulfonyl)phenyl)-4-(trifluoromethyl)-1H-imidazo[4,5-c]pyridin-6-yl)-[1,4′-bipiperidin]-1′-yl)propan-2-ol]
> 50 µM | 2.4 µM | 0.44 µM | Cc1nc(-c2ccc(N3CCC(N4CCCC4)CC3)c(F)c2)cc2c1nc(-c1ccc(S(C)(=O)=O)cc1)n2C [Example 42, 6-(3-fluoro-4-(4-(pyrrolidin-1-yl)piperidin-1-yl)phenyl)-1,4-dimethyl-2-(4-(methylsulfonyl)phenyl)-1H-imidazo[4,5-c]pyridine]
